As a reminder, the zone of inhibition is the extent of the growth-free halo in a diffusion test. As usually defined, the ED50 is the midpoint of the dose-response relation. Read a high ED50 as weaker potency.

Like-named read-outs stand apart in the source and are kept apart here.

For assay [1], the system named is Candida utilis IFO 0619. The experiment in a line: Paper disc agar diffusion, growth inhibition zone, Candida utilis IFO 0619. Type of assay: cell-based. Conditions: Williopsis jadinii, IFO0619, 48 h; Table 4; medium A, 28° C., two days, 1000 μ/ml, 8 mm disc; read-out: Diameter of growth inhibition zone. Here is the method:
(§1) Evaluation of the antifungal activities of the compound of formula (I) was conducted by the following method: a sheet of filter paper disc (manufactured by Toyo Seisakusho, 8 mm in diameter) soaked in a […] solution of a compound of formula (I) in methanol was placed on an agar plate containing various fungi, which was incubated at 28° C. for two days, and the diameter of the growth inhibition zone around the filter paper disc was measured. The following culture media were used: A: yeast nitrogen base agar medium (pH 7.0) B: Sabouraud agar medium
Background: Agar diffusion results depend on both activity and mobility in agar.

The subject of assay [2] is Aspergillus fumigatus IFO 6344. The experiment in a line: Paper disc agar diffusion, growth inhibition zone, Aspergillus fumigatus IFO 6344. Conditions: IFO6344, 48 h, Table 4, medium A, 28° C., two days, 1000 μ/ml, 8 mm disc, read-out: Diameter of growth inhibition zone. The assay is classed as cell-based. The protocol:
as §1

In assay [3] the test system is Cryptococcus neoformans IFO 0410. The assay is described as follows: Paper disc agar diffusion, growth inhibition zone, Cryptococcus neoformans IFO 0410. The assay is classed as cell-based. Conditions: IFO0410, 48 h, Table 4, medium A, 28° C., two days, 1000 μ/ml, 8 mm disc, read-out: Diameter of growth inhibition zone. The protocol:
as §1

In assay [4] the test system is Trichophyton mentagrophytes IFO 7522. The assay is described as follows: Paper disc agar diffusion, growth inhibition zone, Trichophyton mentagrophytes IFO 7522. Type of assay: cell-based. To be noted: IFO7522, 48 h, Table 4, medium B (Sabouraud agar), 28° C., two days, 1000 μ/ml, 8 mm disc, read-out: Diameter of growth inhibition zone. The protocol: as §1
The subject of assay [5] is Microsporum gypseum IFO 6075. The experiment in a line: Paper disc agar diffusion, growth inhibition zone, Microsporum gypseum IFO 6075. The assay is classed as cell-based. To be noted: Nannizzia gypsea, IFO6075, 48 h; Table 4; medium B (Sabouraud agar), 28° C., two days, 1000 μ/ml, 8 mm disc; read-out: Diameter of growth inhibition zone. The protocol:
as §1

For assay [6], the system named is Candida albicans IFO 0583. The assay is described as follows: Paper disc agar diffusion, growth inhibition zone, Candida albicans IFO 0583. Type of assay: cell-based. Conditions: 28° C., 8 mm disc. Here is the method:
as §1
cpd. No. (Medium A, 28° C., two-day culture)

The test system of assay [7] is Trichophyton rubrum IFO 6467. The experiment in a line: Paper disc agar diffusion, growth inhibition zone, Trichophyton rubrum IFO 6467. Type of assay: cell-based. To be noted: IFO6467, 48 h, Table 4, medium B (Sabouraud agar), 28° C., two days, 1000 μ/ml, 8 mm disc, read-out: Diameter of growth inhibition zone. The protocol: as §1
In assay [8] the test system is Aspergillus niger IFO 4066. The experiment in a line: Paper disc agar diffusion, growth inhibition zone, Aspergillus niger IFO 4066. Conditions: IFO4066, 48 h, Table 4, medium A, 28° C., two days, 1000 μ/ml, 8 mm disc, read-out: Diameter of growth inhibition zone. Type of assay: cell-based. Here is the method:
as §1

In assay [9] the test system is Candida albicans. The assay is described as follows: Protective effect against Candida albicans infection in mice. The assay is classed as in vivo, Crj:CDF1 mice. To be noted: 168 h, minimum lethal dose of Candida albicans iv, drug once immediately after infection, survival 7 days after infection. From the text: Test Method: Five-week old Crj:CDF1 mice were inoculated with the minimum lethal dose of Candida albicans intravenously. The test drug was given once immediately after infection. The effectiveness of the drug was expressed in ED50 values calculated by the Reed and Muench method from the survival rate 7 days after infection.

The mark [10] stands for this setting: 48 h, pH 7, Table 4, medium A (yeast nitrogen base agar, pH 7.0), two days, 1000 μ/ml in methanol, read-out: Diameter of growth inhibition zone.
[11] abbreviates: Candida albicans, IFO0583, 48 h, Table 5, Medium A, two-day culture, 1000 μ/ml, read-out: Diameter of growth-inhibition zone.

Consider `C[C@@H](SNc1ccc(Br)cc1)[C@](O)(Cn1cncn1)c1ccc(F)cc1F` [Compound 21, N-(4-bromophenyl)-[(2R,3R)-3-(2,4-difluorophenyl)-3-hydroxy-4-(1H-1,2,4-triazol-1-yl)-2butane]sulfenamide], for which the zone of inhibition at 1000 µg/mL in [1] amounted to 40 mm; in [2] it was 30 mm; in assay [3], 30 mm; in [4] it was 25 mm; in assay [5], 24 mm; in [6] (setting [10]), 43 mm. Besides, the zone of inhibition at 1000 µg/mL in assay [7] worked out at 45 mm; in [8] it was 20 mm.
Take `C[C@H]([C@](O)(Cn1cncn1)c1ccc(F)cc1F)S(=O)(=O)N1CCN(c2ccccc2)CC1` [Compound 23]: the zone of inhibition at 1000 µg/mL was 45 mm in assay [1]; 22 mm in assay [2]; 40 mm in [3]; 25 mm in assay [4]; 30 mm in assay [5]; 45 mm in [6] (setting [10]). The zone of inhibition at 1000 µg/mL was 40 mm in assay [7] and 20 mm in [8]. In assay [9] (po), this compound registered an ED50 of 7.1 mg/kg.
Turning to `C[C@H]([C@](O)(Cn1cncn1)c1ccc(F)cc1F)S(=O)(=O)NC(c1ccccc1)c1ccccc1` [Compound 59, N-diphenylmethyl-[(2R,3R)-3-(2,4-difluorophenyl)-3-hydroxy-4-(1H-1,2,4-triazol-1-yl)-2-butane]sulfonamide], the zone of inhibition at 1000 µg/mL in [6] (setting [11]) was determined as 30 mm. For the same compound, the 50% effective dose (ED50) in [9] (po) stood at 11.3 mg/kg.
In the case of `C[C@H]([C@](O)(Cn1cncn1)c1ccc(F)cc1F)S(N)(=O)=O` [Compound 65, (2R,3R)-3-(2,4-difluorophenyl)-3-hydroxy-4-(1H-1,2,4-triazol-1-yl)-2-butanesulfonamide], in assay [6] (setting [11]), the zone of inhibition at 1000 µg/mL amounted to 30 mm. Besides, it took a dose of 11.3 mg/kg to reach the 50% effect level in [9] (po) (ED50).
`C[C@@H](N(C)S(=O)(=O)CC(F)(F)F)[C@](O)(Cn1cncn1)c1ccc(F)cc1F` [Compound 54]: the zone of inhibition at 1000 µg/mL in assay [6] (setting [11]) came out at 40 mm. Moreover, it took a dose of 3.5 mg/kg to reach the 50% effect level in [9] (po) (ED50).
In the same order, the values of `C[C@@H](N(C)S(C)(=O)=O)[C@](O)(Cn1cncn1)c1ccc(F)cc1F` [Compound 53, N-[(2R,3R)-3-(2,4-difluorophenyl)-3-hydroxy-4-(1H-1,2,4-triazol-1-yl) -2-butyl]-N-methylmethanesulfornamide] are 40 mm and 3.5 mg/kg.
`C[C@H]([C@](O)(Cn1cncn1)c1ccc(F)cc1F)S(=O)(=O)N(C)Cc1nccn1C` [Compound 75]: the zone of inhibition at 1000 µg/mL in [6] (setting [11]) stood at 34 mm. Besides, the median effective dose (ED50) in [9] (po) came out at 8 mg/kg.
As for `C[C@H]([C@](O)(Cn1cncn1)c1ccc(F)cc1F)S(=O)(=O)NC1CC1` [Compound 10, N-cyclopropyl-[(2R,3R)-3-(2,4-difluorophenyl)-3-hydroxy-4-(1H-1,2,4-triazol-1-yl)-2-butane]sulfonamide], the zone of inhibition at 1000 µg/mL in [6] (setting [11]) amounted to 35 mm. For the same compound, the ED50 in assay [9] (po) is 7.07 mg/kg; in assay [9] (sc) it was 14.1 mg/kg.
As to `C[C@H]([C@](O)(Cn1cncn1)c1ccc(F)cc1F)S(=O)(=O)N(C)C` [Compound 2, N,N-dimethyl-[(2R,3R)-3-(2,4-difluorophenyl)-3-hydroxy-4-(1H-1,2,4-triazol-1-yl) -2-butane]sulfonamide], the zone of inhibition at 1000 µg/mL in assay [1] turned out to be 36 mm; in [2], 25 mm; in assay [3], 38 mm; in assay [4] it was 25 mm; in assay [5] it was 22 mm; in assay [6] (setting [10]) it was 25 mm. For the same compound, the zone of inhibition at 1000 µg/mL was 35 mm in assay [7] and 25 mm in assay [8]. The ED50 in assay [9] (po) and in [9] (sc) was 5 mg/kg each time.
For `C[C@H]([C@](O)(Cn1cncn1)c1ccc(F)cc1F)S(=O)(=O)N(C)Cc1ccncc1` [Compound 76], the zone of inhibition at 1000 µg/mL in [6] (setting [11]) was 40 mm. Also, the 50% effective dose (ED50) in assay [9] (po) is 8 mg/kg.
`CNS(=O)(=O)[C@H](C)[C@](O)(Cn1cncn1)c1ccc(F)cc1F` [Compound 12, N-methyl-[(2R,3R)-3-(2,4-difluorophenyl)-3-hydroxy-4(1H -1,2,4-triazol-1-yl)-2-butane]sulfonamide]: the zone of inhibition at 1000 µg/mL in [6] (setting [11]) turned out to be 37 mm. The same compound came in with an ED50 in assay [9] (po) of 5 mg/kg.
On to `C[C@@H](NS(=O)(=O)c1ccc([N+](=O)[O-])cc1)[C@](O)(Cn1cncn1)c1ccc(F)cc1F` [Compound 51], for which, in assay [6] (setting [11]), the zone of inhibition at 1000 µg/mL was 38 mm. In assay [9] (po), this compound registered an ED50 of 8 mg/kg.
On to `C[C@H]([C@](O)(Cn1cncn1)c1ccc(F)cc1F)S(=O)(=O)N1CCN(c2ccc(F)cc2)CC1` [Compound 71, 4-[(2R,3R)-3-(2,4-difluorophenyl)-3-hydroxy-4-(1H-1,2,4-triazol-1-yl)-2-butanesulfonyl]-1(4-fluorophenyl)piperazine], for which, in [6] (setting [11]), the zone of inhibition at 1000 µg/mL stood at 47 mm. In addition, the ED50 in assay [9] (po) was determined as 8 mg/kg.
Take `C[C@H]([C@](O)(Cn1cncn1)c1ccc(F)cc1F)S(=O)(=O)N1CCN(c2nc(Cl)ncc2F)CC1` [Compound 91, 1-[(2R,3R)-3-(2,4-difluorophenyl)-3-hydroxy-4-(1H-1,2,4-triazol-1-yl)-2-butanesulfonyl]-4-(2-chloro-5-fluoropyrimidin-4-yl)piperazine]: the zone of inhibition at 1000 µg/mL in assay [6] (setting [11]) amounted to 50 mm. In addition, the 50% effect level in assay [9] (po) (ED50) was put at a dose of 11.3 mg/kg.
As for `C[C@H]([C@](O)(Cn1cncn1)c1ccc(F)cc1F)S(=O)(=O)NC1CCCCC1` [Compound 6, N-cyclohexyl-[(2R,3R)-3(2,4-difluorophenyl)-3-hydroxy-4-(1H-1,2,4-triazol-1-yl)-2-butane]sulfonamide], the zone of inhibition at 1000 µg/mL in [6] (setting [11]) amounted to 40 mm. In assay [9] (po), this compound returned an ED50 of 7.07 mg/kg.
